Experimental data from patent publication US20230183818A1, “ANTIBIOTIC SUSCEPTIBILITY OF MICROORGANISMS AND RELATED MARKERS, COMPOSITIONS, METHODS AND SYSTEMS” (priority 2018, published 2023).
Values after ≈ are worked out from the molar mass of the structure shown.

Tests used:
Neisseria gonorrhoeae [1] = conditions: cited from earlier work
Neisseria gonorrhoeae [2] = system: Neisseria gonorrhoeae
Description: Cultures were diluted (5X) into HFB. Each isolate culture was split into “treated” and “control” tubes.
During incubation, samples were collected for RNA sequencing at 5, 10, and 15 min (300 µL aliquot of sample was mixed into 600 µL of Qiagen RNA Protect Reagent (Qiagen, Hilden, Germany) for immediate RNA stabilization).
RNA was extracted using the Enzymatic Lysis of Bacteria protocol of the Qiagen RNeasy Mini Kit and processed according to the manufacturer’s protocol. DNA digestion was performed during extraction using the Qiagen RNase-Free DNase Set.
The quality of extracted RNA was measured using an Agilent 2200 TapeStation (Agilent, Santa Clara, CA, USA). Extracted RNA samples were prepared for sequencing using the NEBNext Ultra RNA Library Prep Kit for Illumina (New England Biolabs, Ipswitch, MA, USA) and the NEBNExt Multiplex Oligos for Illumina. […] Raw reads from the sequenced libraries were subjected to quality control to filter out low-quality reads and trim the adaptor sequences using Trimmomatic (version 0.35).
The reads were aligned to the FA 1090 strain of N. gonorrhoeae (NCBI Reference Sequence: NC_002946.2) using Bowtie2 (version 2.2.5) and quantified using the Subread package (version 1.5.0-p1). A pseudocount of 1 was added to the gene quantification; gene expression was defined in transcripts per million (TPM). […]

| Compound | MIC Breakpoint, S (susceptible) (Neisseria gonorrhoeae [1]) | MIC Breakpoint, I (intermediate) (Neisseria gonorrhoeae [1]) | MIC Breakpoint, R (resistant) (Neisseria gonorrhoeae [1]) | transcriptional response in resistant isolates (Neisseria gonorrhoeae [2]; resistant isolates, all time points (0-15 min)) | expression response of the six candidate markers (porB, rpmB, tig, yebC, pilB, cysK) (Neisseria gonorrhoeae [2]; susceptible isolates, 15 min exposure) | resistant MIC breakpoint (Neisseria gonorrhoeae [1]; Neisseria gonorrhoeae) | susceptible MIC breakpoint (Neisseria gonorrhoeae [1]; Neisseria gonorrhoeae) |
| --- | --- | --- | --- | --- | --- | --- | --- |
| CO/N=C(\C(=O)N[C@@H]1C(=O)N2C(C(=O)[O-])=C(C[N+]3(C)CCCC3)CS[C@H]12)c1csc(N)n1 [Cefepime] | ≤ 0.5 µg/mL |  |  |  |  |  |  |
| CO/N=C(\C(=O)N[C@@H]1C(=O)N2C(C(=O)O)=C(C)CS[C@H]12)c1csc(N)n1 [Cefetamet] | ≤ 0.5 µg/mL |  |  |  |  |  |  |
| CO[C@@]1(NC(=O)CSCC#N)C(=O)N2C(C(=O)O)=C(CSc3nnnn3C)CS[C@@H]21 [Cefmetazole] | ≤2 µg/mL | 4 µg/mL (≈ 8.48 µM) | ≥8 µg/mL |  |  |  |  |
| CO/N=C(\C(=O)N[C@@H]1C(=O)N2C(C(=O)O)=C(COC(C)=O)CS[C@H]12)c1csc(N)n1 [Cefotaxime] | ≤ 0.5 µg/mL |  |  |  |  |  |  |
| CO[C@@]1(NC(=O)Cc2cccs2)C(=O)N2C(C(=O)O)=C(COC(N)=O)CS[C@@H]21 [Cefoxitin] | ≤2 µg/mL | 4 µg/mL (≈ 9.36 µM) | ≥8 µg/mL |  |  |  |  |
| CC(C)(O/N=C(\C(=O)N[C@@H]1C(=O)N2C(C(=O)[O-])=C(C[n+]3ccccc3)CS[C@H]12)c1csc(N)n1)C(=O)O [Ceftazidime] | ≤ 0.5 µg/mL |  |  |  |  |  |  |
| CO/N=C(\C(=O)N[C@@H]1C(=O)N2C(C(=O)O)=CCS[C@H]12)c1csc(N)n1 [Ceftizoxime] | ≤ 0.5 µg/mL |  |  |  |  |  |  |
| CO/N=C(\C(=O)N[C@@H]1C(=O)N2C(C(=O)O)=C(CSc3nc(=O)c(=O)[nH]n3C)CS[C@H]12)c1csc(N)n1 [Ceftriaxone] | ≤ 0.25 µg/mL |  |  |  |  |  |  |
| CO/N=C(\C(=O)N[C@@H]1C(=O)N2C(C(=O)O)=C(COC(N)=O)CS[C@H]12)c1ccco1 [Cefuroxime] | ≤1 µg/mL | 2 µg/mL (≈ 4.71 µM) | ≥4 µg/mL |  |  |  |  |
| O=C(O)c1cn(C2CC2)c2cc(N3CCNCC3)c(F)cc2c1=O [Ciprofloxacin, ciprofloxacin] | ≤ 0.06 µg/mL | 0.12 to 0.5 µg/mL | ≥1 µg/mL | did not significantly respond | downregulation | 1.00 microgram/mL | 0.06 microgram/mL |
| CCn1cc(C(=O)O)c(=O)c2cc(F)c(N3CCNCC3)nc21 [Enoxacin] | ≤ 0.5 µg/mL | 1 µg/mL (≈ 3.12 µM) | ≥2 µg/mL |  |  |  |  |
| CN1CCN(c2c(F)cc3c(=O)c(C(=O)O)cn(CCF)c3c2F)CC1 [Fleroxacin] | ≤ 0.25 µg/mL | 0.5 µg/mL (≈ 1.35 µM) | ≥1 µg/mL |  |  |  |  |
| CCn1cc(C(=O)O)c(=O)c2cc(F)c(N3CCNC(C)C3)c(F)c21 (stereo not shown) [Lomefloxacin] | ≤ 0.12 µg/mL | 0.25 to 1 µg/mL | ≥2 µg/mL |  |  |  |  |
| CN[C@@H]1[C@H](O)[C@H](NC)[C@H]2O[C@@]3(O)C(=O)C[C@@H](C)O[C@H]3O[C@@H]2[C@H]1O [Spectinomycin] | ≤ 32 µg/mL | 64 µg/mL (≈ 193 µM) | ≥ 128 µg/mL |  |  |  |  |
| Penicillin | ≤ 0.06 µg/mL | 0.12 to 1 µg/mL | ≥2 µg/mL |  |  |  |  |
